Source: patent US8097585B2, “Methods of treating inflammation by administration of heme oxygenase-1 and products of heme degradation” (priority 2002, dated 2012)
Where a name gives a salt, the structure may show the parent alone.

Legend:
[1] = tested on: IL-10; assay: Endotoxic shock (LPS) model, serum IL-10; format: in vivo, Sprague-Dawley rats; details: biliverdin i.p. […] 17 h and 1 h prior to and 8 h after LPS
Experimental: Treatment Protocol. Endotoxin (lipopolysaccharide/LPS; Sigma; E. coli serotype 0128:B7; 3 mg/kg, i.v.) was administered to male Sprague-Dawley, resulting in an acute non-lethal inflammation. In rats, a sublethal dose of LPS results in a moderate lung inflammation characterized by neutrophil accumulation and protein accumulation in the airspace, both markers of lung inflammation. The pro-inflammatory cytokine TNF-alpha increases very rapidly in the serum, peaking by 60-90 minutes. This is followed by increases in IL-10, a prototypical anti-inflammatory cytokine that peaks 8-12 hr later.
Administration of Biliverdin. Biliverdin (Frontier Scientific: prepared in PBS following solubilization in NaOH) was administered i.p. at […] 17 hours prior to, one hour prior to, and eight hours after LPS administration.
Bronchoalveolar Lavage. A bronchoalveolar lavage (BAL) was performed 24 hours after LPS administration. Serum cytokines were measured using commercially available ELISA kits (R&D Systems Inc.) per the manufacturer's instructions. Total protein was determined via a standard Bradford assay based on a standard curve. […] Total cell count was determined as well as differential analysis of cell type and morphology via Diff-Quik® Fixative (American Scientific Products) staining of a sample of the lavagate.

[2] = tested on: TNF-α; assay: Real time RT-PCR of graft muscularis after SITx, TNF-α; format: in vivo, LEW rats; details: BV treatment, 4 hours
Experimental: Small Intestinal Transplantation. Orthotopic small intestinal transplantation (SITx) was performed in syngeneic Lewis rats. SITx with caval drainage was performed using a previously described procedure (Murase et al., in Handbook of Animal Models in Transplantation Research, Cramer et al., Eds. CRC Press, Boca Raton, Fla., pp. 203-213 (1994)). […] The graft was perfused via the aortic segment with 5 ml chilled Ringer's lactate solution, and the intestinal lumen was irrigated with 20 ml of cold saline solution containing 0.5% neomycin-sulfate (Sigma, St. Louis, Mo.). […]
SYBR green real time RT-PCR. The effects of administration of biliverdin on transplant-induced pro-inflammatory and anti-inflammatory gene expression were assessed in muscularis extracts by RT-PCR Biliverdin ([…], i.p.) was administered to both the donor and recipient three hours preoperatively. […] Equal aliquots (5 μg) of total RNA from each sample were quantified by spectrophotometry (wavelength […]) and aliquoted at a concentration of 40 ng/μl. Peak mRNA expression was quantified in duplicate by SYBR Green two-step, real-time RT-PCR. […] Real-time PCR data were plotted as the ΔRn fluorescence signal versus the cycle number. […] Quantification of mRNA expression was normalized to GAPDH and calculated relative to control using the comparative CT method (Schmittgen et al., J. Biochem. Biophys. Methods 46(1-2):69-8, 2000). […]

Compound: C=CC1=C(C)/C(=C/C2=NC(=C\c3[nH]c(/C=C4\NC(=O)C(C)=C4C=C)c(C)c3CCC(=O)O)/C(CCC(=O)O)=C2C)NC1=O [biliverdin, biliverdin dihydrochloride]
- IL-10 level [1]: augmentation
- upregulation of TNF-α mRNA caused by transplantation [2]: did not significantly change
